Reference: patent publication US11427548B2 (Arvinas Operations, Inc., priority 2015, dated 2022)
Where two headings read alike, the source gives them in different places. Values belong to the compound of their own block, whether it stands above or below them.

Legend:
Androgen Receptor [1] = molecular target: T1, Androgen Receptor (Homo sapiens, UniProt P10275+P40337, T878A); assay: Androgen Receptor ELISA assay (PathScan AR ELISA) in LNCaP cells: AR degradation, Dmax and DC50; format: cell-based; details: for DC50: concentration that caused 50% Androgen Receptor degradation
T1 construct: Compounds have been evaluated in this assay in LNCaP and/or VCaP cells utilizing similar protocols; endogenous in cells; host or cells: LNCaP cells
T1 sequence (P10275 whole entry T878A): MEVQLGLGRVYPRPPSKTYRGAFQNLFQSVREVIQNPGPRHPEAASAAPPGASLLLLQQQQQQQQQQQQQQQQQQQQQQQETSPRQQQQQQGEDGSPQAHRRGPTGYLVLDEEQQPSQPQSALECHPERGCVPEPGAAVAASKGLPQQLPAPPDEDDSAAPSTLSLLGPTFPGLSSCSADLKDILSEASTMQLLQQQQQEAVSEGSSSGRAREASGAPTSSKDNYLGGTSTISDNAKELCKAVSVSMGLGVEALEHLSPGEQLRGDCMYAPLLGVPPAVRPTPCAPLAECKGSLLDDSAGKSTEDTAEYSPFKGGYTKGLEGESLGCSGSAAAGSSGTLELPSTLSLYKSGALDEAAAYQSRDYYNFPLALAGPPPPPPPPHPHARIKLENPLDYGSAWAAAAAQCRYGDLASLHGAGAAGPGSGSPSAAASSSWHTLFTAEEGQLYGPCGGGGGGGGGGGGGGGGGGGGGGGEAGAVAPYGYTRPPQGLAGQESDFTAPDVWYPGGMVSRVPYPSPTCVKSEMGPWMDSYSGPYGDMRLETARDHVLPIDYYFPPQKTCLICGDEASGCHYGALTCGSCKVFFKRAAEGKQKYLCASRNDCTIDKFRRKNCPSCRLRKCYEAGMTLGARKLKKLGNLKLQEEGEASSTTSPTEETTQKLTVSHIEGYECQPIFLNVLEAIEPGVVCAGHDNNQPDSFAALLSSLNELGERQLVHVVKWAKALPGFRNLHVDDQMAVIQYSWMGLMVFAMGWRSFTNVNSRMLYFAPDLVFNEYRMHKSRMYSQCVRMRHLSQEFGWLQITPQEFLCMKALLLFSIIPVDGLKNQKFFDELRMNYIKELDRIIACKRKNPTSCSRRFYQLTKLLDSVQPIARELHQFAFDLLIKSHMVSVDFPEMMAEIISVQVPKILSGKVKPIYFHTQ
T1 sequence (P40337 whole entry): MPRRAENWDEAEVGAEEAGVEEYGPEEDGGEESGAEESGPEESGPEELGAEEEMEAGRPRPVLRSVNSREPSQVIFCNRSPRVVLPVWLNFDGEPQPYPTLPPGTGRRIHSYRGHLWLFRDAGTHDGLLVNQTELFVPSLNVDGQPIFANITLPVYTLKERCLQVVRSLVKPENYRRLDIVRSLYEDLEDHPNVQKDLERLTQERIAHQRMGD
T1 sequence (Q15369 whole entry partner): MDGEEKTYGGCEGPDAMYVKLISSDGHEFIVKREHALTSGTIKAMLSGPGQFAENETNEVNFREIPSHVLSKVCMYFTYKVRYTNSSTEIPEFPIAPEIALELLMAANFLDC
T1 sequence (Q15370 whole entry partner): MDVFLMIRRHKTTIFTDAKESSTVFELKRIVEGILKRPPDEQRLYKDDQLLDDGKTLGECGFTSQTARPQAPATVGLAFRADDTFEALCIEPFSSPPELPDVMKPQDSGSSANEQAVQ

Androgen Receptor [2] = molecular target: T2, Androgen Receptor (Homo sapiens, UniProt P10275); assay: Androgen Receptor ELISA assay (PathScan AR ELISA) in VCaP cells: AR degradation, Dmax and DC50; format: cell-based
T2 construct: endogenous in cells; host or cells: VCaP cells
T2 sequence (P10275 1-920): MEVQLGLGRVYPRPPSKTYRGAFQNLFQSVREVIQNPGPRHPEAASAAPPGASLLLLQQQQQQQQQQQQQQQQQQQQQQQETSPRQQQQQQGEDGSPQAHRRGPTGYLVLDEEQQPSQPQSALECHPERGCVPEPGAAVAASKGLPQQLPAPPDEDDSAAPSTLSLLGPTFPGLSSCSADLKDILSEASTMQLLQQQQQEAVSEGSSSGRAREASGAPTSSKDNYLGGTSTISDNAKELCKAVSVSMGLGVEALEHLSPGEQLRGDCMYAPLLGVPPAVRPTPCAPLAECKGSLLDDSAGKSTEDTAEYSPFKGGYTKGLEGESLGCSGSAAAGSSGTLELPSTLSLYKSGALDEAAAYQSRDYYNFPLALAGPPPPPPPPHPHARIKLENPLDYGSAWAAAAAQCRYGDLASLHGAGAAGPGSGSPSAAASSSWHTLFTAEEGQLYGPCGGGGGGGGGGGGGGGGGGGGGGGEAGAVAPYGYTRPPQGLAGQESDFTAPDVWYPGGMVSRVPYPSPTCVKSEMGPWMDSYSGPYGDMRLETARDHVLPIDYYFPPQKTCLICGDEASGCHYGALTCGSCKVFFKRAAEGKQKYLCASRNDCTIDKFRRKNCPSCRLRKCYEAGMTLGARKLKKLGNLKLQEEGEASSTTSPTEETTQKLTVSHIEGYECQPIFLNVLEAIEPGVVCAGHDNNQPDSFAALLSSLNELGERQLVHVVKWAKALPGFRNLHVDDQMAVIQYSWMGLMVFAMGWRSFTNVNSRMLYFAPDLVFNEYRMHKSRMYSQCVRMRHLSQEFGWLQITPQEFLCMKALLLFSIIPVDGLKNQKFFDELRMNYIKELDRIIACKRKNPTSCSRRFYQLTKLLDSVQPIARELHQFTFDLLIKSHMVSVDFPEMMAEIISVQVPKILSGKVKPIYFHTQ
How it was run: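 VCaP cells, 30,000/well, grown ≥3 days in phenol red-free RPMI with 5% charcoal-stripped FBS; compound added in 0.1% DMSO with 0.1 nM R1881, 7 half-log doses, 24 h. Lysate AR quantified by PathScan sandwich ELISA, HRP/TMB read at 450 nm, giving DC50 and Dmax.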

[3] = highest percentage of Androgen Receptor degradation
[4] = highest percentage of Androgen Receptor degradation observed
[5] = VCaP, highest percentage of Androgen Receptor degradation observed, VCaP cells (Table 32); read-out: VCaP Dmax (%)
[6] = concentration that caused 50% Androgen Receptor degradation, VCaP cells (Table 32); read-out: VCaP DC50
[7] = VCaP cells; Table 36; read-out: VCaP DC50

Compound: Cc1ncsc1-c1ccc(CNC(=O)[C@@H]2C[C@H](O)CN2C(=O)[C@H](C(C)C)N2Cc3ccccc3C2=O)c(OCCOCCOCCOc2ccc(N3C(=S)N(c4ccc(C#N)c(C(F)(F)F)c4)C(=O)C3(C)C)cc2)c1 [Example 229]
DC50 (Androgen Receptor [1]): 51 to 500 nM | Dmax (Androgen Receptor [1]; [3]): 51 to 70%

Compound: Cc1ncsc1-c1ccc(CNC(=O)[C@@H]2C[C@@H](O)CN2C(=O)[C@@H](NC(=O)COCCOCCOCCCOCCOCCOc2ccc(N3C(=S)N(c4ccc(C#N)c(C(F)(F)F)c4)C(=O)C3(C)C)cc2)C(C)(C)C)cc1 [Example 216]
DC50 (Androgen Receptor [1]): 51 to 500 nM | Dmax (Androgen Receptor [1]; [3]): 51 to 70%

Compound: Cc1ncsc1-c1ccc(CNC(=O)[C@@H]2C[C@@H](O)CN2C(=O)[C@@H](NC(=O)COCCO[C@H](C)[C@@H](C)OCCOc2ccc(N3C(=S)N(c4ccc(C#N)c(C(F)(F)F)c4)C(=O)C3(C)C)cc2)C(C)(C)C)cc1 [Example 23, (2S,4R)-1-[(2S)-2-[2-(2-{[(2R,3R)-3-[2-(4-{3-[4-cyano-3-(trifluoromethyl)phenyl]-5,5-dimethyl-4-oxo-2-sulfanylideneimidazolidin-1-yl}phenoxy)ethoxy]butan-2-yl]oxy}ethoxy)acetamido]-3,3-dimethylbutanoyl]-4-hydroxy-N-{[4-(4-methyl-1,3-thiazol-5-yl)phenyl]methyl}pyrrolidine-2-carboxamide]
DC50 (Androgen Receptor [1]): 51 to 500 nM | Dmax (Androgen Receptor [1]; [4]): > 71%

Compound: Cc1ncsc1-c1ccc(CNC(=O)[C@@H]2C[C@@H](O)CN2C(=O)[C@@H](NC(=O)COCCOCCCOCCCOc2ccc(N3C(=S)N(c4ccc(C#N)c(C(F)(F)F)c4)C(=O)C3(C)C)cc2)C(C)(C)C)cc1 [Example 262]
DC50 (Androgen Receptor [1]): 51 to 500 nM | Dmax (Androgen Receptor [1]; [3]): 26 to 50%

Compound: Cc1ncsc1-c1ccc(CNC(=O)[C@@H]2C[C@@H](O)CN2C(=O)[C@@H](NC(=O)COCCOCCOCCCCCOc2ccc(N3C(=S)N(c4ccc(C#N)c(C(F)(F)F)c4)C(=O)C3(C)C)cc2)C(C)(C)C)cc1 [Example 225]
DC50 (Androgen Receptor [1]): < 50 nM | Dmax (Androgen Receptor [1]; [3]): 51 to 70%

Compound: Cc1ncsc1-c1ccc(CNC(=O)[C@@H]2C[C@@H](O)CN2C(=O)[C@@H](NC(=O)COCCOCCOCCOCCOCCOCCOc2ccc(N3C(=S)N(c4ccc(C#N)c(C(F)(F)F)c4)C(=O)C3(C)C)cc2)C(C)(C)C)cc1 [Example 212]
DC50 (Androgen Receptor [1]): > 501 nM | Dmax (Androgen Receptor [1]; [3]): > 71%

Compound: Cc1ncsc1-c1ccc(CNC(=O)[C@@H]2C[C@@H](O)CN2C(=O)[C@@H](NC(=O)COCCOCCNC(=O)CCCc2ccc(N3C(=S)N(c4ccc(C#N)c(C(F)(F)F)c4)C(=O)C3(C)C)cc2)C(C)(C)C)cc1 [Example 62, (2S,4R)-1-((S)-2-tert-butyl-16-(4-(3-(4-cyano-3-(trifluoromethyl)phenyl)-5,5-dimethyl-4-oxo-2-thioxoimidazolidin-1-yl)phenyl)-4,13-dioxo-6,9-dioxa-3,12-diazahexadecane)-4-hydroxy-N-(4-(4-methylthiazol-5-yl)benzyl)pyrrolidine-2-carboxamide]
DC50 (Androgen Receptor [1]): > 501 nM | Dmax (Androgen Receptor [1]; [4]): 51 to 70%

Compound: Cc1ncsc1-c1ccc(CNC(=O)[C@@H]2C[C@@H](O)CN2C(=O)[C@@H](NC(=O)c2cccc(OCCOCCOc3ccc(N4C(=S)N(c5ccc(C#N)c(C(F)(F)F)c5)C(=O)C4(C)C)cc3)c2)C(C)(C)C)cc1 [Example 283]
DC50 (Androgen Receptor [1]): 51 to 500 nM | Dmax (Androgen Receptor [1]; [3]): 51 to 70%

Compound: Cc1ncsc1-c1ccc(CNC(=O)[C@@H]2C[C@@H](O)CN2C(=O)[C@H](C(C)C)N2Cc3ccccc3C2=O)c(OCCOCCOCCCCOCCCCOCCOCCOc2ccc(N3C(=S)N(c4ccc(C#N)c(C(F)(F)F)c4)C(=O)C3(C)C)cc2)c1 [Example 219]
Dmax (Androgen Receptor [1]; [3]): > 71%

Compound: Cc1ncsc1-c1ccc([C@H](C)NC(=O)[C@@H]2C[C@@H](O)CN2C(=O)[C@@H](C(C)C)n2cc(Oc3ccc(OC4CCC(Oc5ccc(N6C(=S)N(c7ccc(C#N)c(C(F)(F)F)c7)C(=O)C6(C)C)cc5)CC4)nc3)cn2)cc1 (stereo partly drawn) [Example 628, (2S,4R)-1-((R)-2-(4-((6-((4-(4-(3-(4-cyano-3-(trifluoromethyl)phenyl)-5,5-dimethyl-4-oxo-2-thioxoimidazolidin-1-yl)phenoxy)cyclohexyl)oxy)pyridin-3-yl)oxy)-1H-pyrazol-1-yl)-3-methylbutanoyl)-4-hydroxy-N-((S)-1-(4-(4-methylthiazol-5-yl)phenyl)ethyl)pyrrolidine-2-carboxamide]
Dmax (Androgen Receptor [2]; VCaP, read-out: VCaP Dmax (%)): 26 to 50% | DC50 (Androgen Receptor [2]; read-out: VCaP DC50; VCaP cells; Table 36): > 501 nM

Dmax (Androgen Receptor [2]; [5]): > 71% | DC50 (Androgen Receptor [2]; [6]): < 50 nM
Compound: Cc1ncsc1-c1ccc(CNC(=O)[C@@H]2C[C@@H](O)CN2C(=O)[C@@H](NC(=O)CNCCCCCOc2ccc(C(=O)N[C@H]3C(C)(C)[C@H](Oc4ccc(C#N)c(Cl)c4)C3(C)C)cc2)C(C)(C)C)cc1 [Example 188]

DC50 (Androgen Receptor [2]; [7]): > 501 nM | Dmax (Androgen Receptor [2]; VCaP, read-out: VCaP Dmax (%), VCaP cells; Table 36): < 25%
Compound: Cc1ncsc1-c1ccc([C@H](C)NC(=O)[C@@H]2C[C@@H](O)CN2C(=O)[C@@H](NC(=O)CN2CCN(CCOCCN3CCN(c4ccc(C(=O)N[C@H]5C(C)(C)[C@H](Oc6ccc(C#N)c(Cl)c6)C5(C)C)cn4)CC3)CC2)C(C)(C)C)cc1 [Example 805, N-((1r,3r)-3-(3-chloro-4-cyanophenoxy)-2,2,4,4-tetramethylcyclobutyl)-6-(4-(2-(2-(4-(2-(((S)-1-((2S,4R)-4-hydroxy-2-(((S)-1-(4-(4-methylthiazol-5-yl)phenyl)ethyl)carbamoyl)pyrrolidin-1-yl)-3,3-dimethyl-1-oxobutan-2-yl)amino)-2-oxoethyl)piperazin-1-yl)ethoxy)ethyl)piperazin-1-yl)nicotinamide]

DC50 (Androgen Receptor [2]; [7]): < 50 nM | Dmax (Androgen Receptor [2]; VCaP, VCaP cells; Table 36; read-out: VCaP Dmax (%)): 51 to 70%
Compound: Cc1ncsc1-c1ccc(C(C)NC(=O)[C@@H]2C[C@@H](OCOC(=O)OC(C)C)CN2C(=O)[C@@H](NC(=O)COCCCCCNc2ccc(C(=O)N[C@H]3C(C)(C)[C@H](Oc4ccc(C#N)c(Cl)c4)C3(C)C)cc2)C(C)(C)C)cc1 (stereo partly drawn) [Example 653, (((3R,5S)-1-((S)-2-(2-((5-((4-(((1r,3r)-3-(3-chloro-4-cyanophenoxy)-2,2,4,4-tetramethylcyclobutyl)carbamoyl)phenyl)amino)pentyl)oxy)acetamido)-3,3-dimethylbutanoyl)-5-(((S)-1-(4-(4-methylthiazol-5-yl)phenyl)ethyl)carbam-oyl)pyrrolidin-3-yl)oxy)methyl isopropyl carbonate]

DC50 (Androgen Receptor [2]; VCaP cells; Table 35; read-out: VCaP DC50): > 501 nM | Dmax (Androgen Receptor [2]; VCaP, VCaP cells; Table 35; read-out: VCaP Dmax (%)): 26 to 50%
Compound: Cc1ncsc1-c1ccc([C@@H](C)NC(=O)[C@H]2C[C@H](O)CN2C(=O)[C@H](NC(=O)COCCCCCNc2ccc(C(=O)N[C@H]3C(C)(C)[C@H](Oc4ccc(C#N)c(Cl)c4)C3(C)C)cc2)C(C)(C)C)cc1 [Example 454]

Compound: Cc1ncoc1-c1ccc(CNC(=O)[C@@H]2C[C@@H](O)CN2C(=O)[C@@H](NC(=O)COCCCNC(=O)c2ccc(-c3ccc(N4C(=S)N(c5ccc(C#N)c(C(F)(F)F)c5)C(=O)C4(C)C)cc3)cc2)C(C)(C)C)cc1 [Example 402]
Dmax (Androgen Receptor [2]; VCaP, read-out: VCaP Dmax (%)): 51 to 70% | DC50 (Androgen Receptor [2]; read-out: VCaP DC50; VCaP cells; Table 34): < 50 nM

Compound: Cc1ncsc1-c1ccc([C@H](C)NC(=O)[C@@H]2C[C@@H](O)CN2C(=O)[C@@H](NC(=O)COCCCCNc2ccc(C(=O)N[C@H]3C(C)(C)[C@H](Oc4ccc(C#N)c(Cl)c4)C3(C)C)cc2)C(C)(C)C)cc1 [Example 177, (2S,4R)-1-[(2S)-3,3-dimethyl-2-(2-{4-[(4-{[trans-3-(3-chloro-4-cyanophenoxy)-2,2,4,4-tetramethylcyclobutyl]carbamoyl}phenyl)amino]butoxy}acetamido)butanoyl]-4-hydroxy-N-[(1S)-1-[4-(4-methyl-1,3-thiazol-5-yl)phenyl]ethyl]pyrrolidine-2-carboxamide]
Dmax (Androgen Receptor [2]; [5]): > 71% | DC50 (Androgen Receptor [2]; [6]): < 50 nM

Compound: Cc1ncsc1-c1ccc(CNC(=O)[C@@H]2C[C@@H](O)CN2C(=O)[C@@H](NC(=O)COCCCOCCCCOc2ccc(N3C(=S)N(c4ccc(C#N)c(C(F)(F)F)c4)C(=O)C34CCN(C)CC4)cc2)C(C)(C)C)cc1 [Example 51, (2S,4R)-1-[(2S)-2-(2-{3-[4-(4-{3-[4-cyano-3-(trifluoromethyl)phenyl]-8-methyl-4-oxo-2-sulfanylidene-1,3,8-triazaspiro[4.5]decan-1-yl}phenoxy)butoxy]propoxy}acetamido)-3,3-dimethylbutanoyl]-4-hydroxy-N-{[4-(4-methyl-1,3-thiazol-5-yl)phenyl]methyl}pyrrolidine-2-carboxamide]
Dmax (Androgen Receptor [2]; VCaP, read-out: VCaP Dmax (%)): 26 to 50% | DC50 (Androgen Receptor [2]; read-out: VCaP DC50; concentration that caused 50% Androgen Receptor degradation, VCaP cells): < 50 nM
